The subject of one series is MOG35-55-induced EAE. The experiment in a line: EAE mouse model of MS, clinical paralysis score. Type of series: in vivo, female C57BL/6 mice. Conditions: EAE mice, oral daily from onset of signs, TM5484 5 mg/kg/d, fingolimod 0.5 mg/kg, 6α-methylprednisolone 5 mg/kg. Here is the method: (§1) All animal experiments conformed to the National Health Guide for the Care and Use of Laboratory Animals and were approved by the Animal Committee at Tohoku University. Studies were performed on 11-week-old female C57BL/6 mice (n = 8–10, each group) and 10-week-old Lewis rats (n = 6–8, each group), obtained from SJC, Japan SLC (Hamamatsu, Shizuoka, Japan). Animals were housed under a 12h light-dark cycle and given regular chow, MF (Oriental Yeast Co., Ltd.).
Experimental autoimmune encephalomyelitis (EAE) was induced in mice as described previously. Briefly, on day 0, 200 microgramme of myelin oligodendrocyte glycoprotein^35–55 (MOG^35–55) peptide was injected s.c, twice, in the lower and upper back of the mice, in an equal volume of complete Freund’s adjuvant (Hooke Laboratories, Inc.). Next, 200 ng of pertussis toxin (Hooke Laboratories, Inc.) dissolved in PBS was applied i.p. On day 1, another 200 ng of pertussis toxin was administered. For rats, 200 microgramme of myelin basic protein^69-88 (MBP^69-88) was injected (Hooke Laboratories, Inc.) twice, in the lower back on day 0. Animals were scored for motor paralysis on a daily basis. Disease severity was assessed using a scale ranging from 0 to 5 (Hooke Laboratories, Inc.): 0, normal; 1, limp tail; 1.5, Limp tail and hind leg inhibition; 2, Limp tail and weakness of hind legs.; 2.5, Limp tail and dragging of hind legs; 3, Limp tail and complete paralysis of hind legs; 3.5, Limp tail and complete paralysis of hind legs and Hind legs are together on one side of body; 4, Limp tail, complete hind leg and partial front leg paralysis; 4.5, Complete hind and partial front leg paralysis, no movement around the cage; 5, Mouse is spontaneously rolling in the cage. Mice were typically observed for 28 days, during which they will remain chronically paralyzed.

The test system of series [1] is MOG35-55-induced EAE, motor coordination. Briefly: Foot print analysis in EAE mice. Type of series: in vivo, female C57BL/6 mice. Here is the method: Briefly, to obtain footprints, the hind- and forefeet of the mice were coated with black non-toxic paint. The floor of the open field box was covered with white paper. Each mouse was placed in a corner of the open field and allowed to walk across the paper, leaving a track of footprints. If a mouse didn’t walk forward, the task was considered a failure. For each step parameter, three values were measured from each run, excluding footprints made at the beginning and end of the run where the animal was initiating and finishing movement respectively. The mean value of each set of three values was used for analysis.

Series [2] has as its system gene expression in spinal cord and spleen. Briefly: qRT-PCR gene expression in spinal cord and spleen of EAE mice. Type of series: in vivo, female C57BL/6 mice. Here is the method:
Spinal cord was harvested from mice and snap frozen in liquid nitrogen (n = 6–7, each group). Total RNA was extracted from spinal cord and spleen using ISOGEN (Nippon Gene). qRT-PCR analysis was performed as described previously. Briefly, qRT-PCR was performed on a LightCycler rapid thermal cycler system using a LightCycler 480 SYBR Green I Master (Roche Applied Science) according to the manufacturer's instructions. Data were analyzed by using the comparative Ct method as means of relative quantification, normalized to an endogenous reference (b-actin, Actb). The sequences of the primers are described below: […]

Series [3] relates to spinal cord (lumbar segments). Briefly: Histology of spinal cord of EAE mice. Type of series: in vivo, female C57BL/6 mice. The text has this:
Mice were perfused in the heart with saline 0.9% followed by neutral-buffered formalin 10% (n = 3-4/group). Slides from different sections of the spinal cord were immersed and fixed overnight in 10% neutral-buffered formalin. Next, samples were transfered and immersed in a 10, 20 and 30% sucrose solution for consecutive nights. Sections were embedded in O.C.T compounds (Sakura Finetek, Japan) for the subsequent immunostaining study. Four sections of the spinal cord from each group were examined. Since the clinical manifestations are typically initiated as limp tail and hind-limb paralysis in this model, we focused on lumbar spinal segments. Frozen specimens were then incubated overnight at room temperature and stained with Cd11b for macrophage infiltration (Abcam), myelin basic protein (MBP) for demyelination, neurofilament non-phosphorylated (SMI-32) for axonal damage, collagen IV for extracellular matrix depositions (Abcam) and fibrinogen (Funakoshi, Japan). Incubation for 2 hs at room temperature in corresponding biotinylated goat secondary antibody was performed. For immunofluorescence, the sections were incubated overnight at room temperature using primary antibody Iba-1 for microglia activation (Wako Chemicals). After wash in PBS, the sections were then incubated in corresponding fluorescent goat secondary antibody (Wako Chemicals). For Cd11b, the number of positive macrophage was quantified as the total cells per selected area. The area of demyelination was calculated as the percentage of negative staining for MBP per selected area. As for axonal damage and collagen IV deposition, the positive staining per selected area was analyzed and calculated as the percentage per total area. For Quantification analysis was assessed by ImageJ TM software (version 1.440, National Institute of Health, Bethesda, MD, USA).

The subject of the next series is MBP69-88-induced EAE. Briefly: EAE rat model of MS, clinical paralysis score. In kind it is in vivo. Conditions: EAE Lewis rats, from onset of signs, dpi 15; TM5484 5 mg/kg/d, fingolimod 0.5 mg/kg. Here is the method:
as §1
Experimental autoimmune encephalomyelitis (EAE) was induced in mice as described previously. […] Animals were scored for motor paralysis on a daily basis. Disease severity was assessed using a scale ranging from 0 to 5 (Hooke Laboratories, Inc.): 0, normal; 1, limp tail; 1.5, Limp tail and hind leg inhibition; 2, Limp tail and weakness of hind legs.; 2.5, Limp tail and dragging of hind legs; 3, Limp tail and complete paralysis of hind legs; 3.5, Limp tail and complete paralysis of hind legs and Hind legs are together on one side of body; 4, Limp tail, complete hind leg and partial front leg paralysis; 4.5, Complete hind and partial front leg paralysis, no movement around the cage; 5, Mouse is spontaneously rolling in the cage. […]

Series [4] can be described thus: In vitro BBB penetration assay (BBB Kit RBT-24H). Conditions: rat.
Method: (§2) This BBB model was reconstructed by the culture of both primary rat brain micro vascular endothelial cells and rat brain pericytes separated by a macroporous Millicell membrane (24 wells, pore size: 3.0 μm, Millipore, Bedford, MA, USA). Briefly, we pre-incubated the BBB kits at 37 °C in 5% CO2 conditions for 4–5 days, in order to strongly reconstruct the barrier integrity and tight-junctions. To evaluate the barrier integrity and confirm the functionality of the tight-junctions, trans-endothelial electrical resistance (TEER) was measured at day 5-post incubation. Assays were carried out using TEER values in the range of 150-to 300-Ω cm^2 [11]. Once the tight junctions reach a TEER of 300-Ω cm^2, 0.9 mL PBS-based assay medium was added to blank 24-well culture plates. Prior to incubation, selected compounds were diluted in DMSO 100%. The compounds suspended in 0.2 mL assay medium were fortified into the apical side and incubated for 30 min. Next, the medium from both the apical and the basolateral sides were collected and further analyzed by liquid chromatography–mass spectrometry.
For series [5], the system named is in vitro model of BBB (primary rat brain micro vascular endothelial cells and rat brain pericytes). Briefly: In vitro BBB penetration assay (BBB Kit RBT-24H). Conditions: in vitro BBB model, apical to basolateral, 30 min, n = 3.
Method: as §2
Another series in a line: in vitro. Conditions: rat.

Each structure is given as a SMILES string. “Also recorded” adds a separate entry of the source.

Consider `CCCCCCCCc1ccc(CCC(N)(CO)CO)cc1` [fingolimod], for which the motor paralysis score entry in the series with MOG35-55-induced EAE is “ameliorated the motor paralysis; also recorded: attenuated the paralysis score to the level observed with TM5484”. The same molecule displayed a stride length in series [1] (dpi 28, TM5484 5 mg/kg/d, fingolimod 0.5 mg/kg) of 5.48 cm. Also, in series [1] (oral administration), the “stride length (in words)” value is reported as “significantly preserved the stride length”. In addition, in series [2] (spinal cord), the BDNF expression result was “did not restore BDNF expression”, the ChAT expression result was “up-regulated ChAT expression” and the “PAI-1 mRNA expression” value is reported as “no effects”. For the same molecule, the “gene expression of inflammatory markers (TNF-α, IL-6, Ccl2, Cd68)” value in series [2] (spinal cord and spleen, dpi 28, treatment from onset of paralysis) is reported as “able to modulate these inflammatory effects”. The BDNF expression result in series [2] (spinal cord, listed as Fingolimod) is recorded as “no effects”. For the same molecule, in series [2] (spleen), the “expression of IL-10” value is “upregulated”. The “fibrin (fibrinogen) deposition” value in series [3] is listed as “no changes were observed”. Further, in series [3] (dpi 28), the “collagen IV deposition” value is on record as “able to ameliorate collagen IV deposition” and the “demyelination (anti-MBP staining)” value is given as “reduced”. The “macrophage accumulation and microglia activation (Cd11b and Iba-1 staining)” value in series [3] (dpi 28, TM5484 5 mg/kg/d, fingolimod 0.5 mg/kg/d) is on record as “significantly reduced; also recorded: ameliorated”. Moreover, in the series on MBP69-88-induced EAE, the “paralysis score at the peak of the paralysis” value is listed as “reduced the paralysis score to a level similar to TM5484”. The Papp at 30 min in series [4] came out at 56 ×10⁻⁶ cm/s.

Take `C[C@H]1C[C@@H]2[C@H]([C@@H](O)C[C@@]3(C)[C@H]2CC[C@]3(O)C(=O)CO)[C@@]2(C)C=CC(=O)C=C12` [6α-methylprednisolone]: the motor paralysis score result with MOG35-55-induced EAE is listed as “ameliorated the motor paralysis”; in the series on MOG35-55-induced EAE (listed as 6-α methylprednisone) it was “attenuated the paralysis score to the level observed with TM5484”.

Turning to `O=C(COCC(=O)Nc1ccc(Cl)cc1C(=O)O)Nc1cccc(-c2ccoc2)c1` [TM5441], the “apparent permeability coefficient (Papp)” value in series [5] was 32.1 x 10^–6 cm/s.

Molecule `CC(C)NCC(O)COc1cccc2ccccc12` (stereo not shown) [Propanolol] came in with an apparent permeability coefficient (Papp) at 30 min in “in vitro” of 31.3 ×10⁻⁶ cm/s.

Values taken from paper PMC4411110 (PLoS ONE, 2015).
